The record followed here is patent publication US20210230179A1, “THIENO[2,3-B]PYRIDINE DERIVATIVES AS EPAC INHIBITORS AND THEIR PHARMACEUTICAL USES” (INSTITUT NATIONAL DE LA SANTE ET DE LA RECHERCHE MEDICALE …, priority 2018, published 2021).

One data set relates to type I PKA holoenzyme. Put plainly: type I PKA holoenzyme activation. Type of data set: biochemical. As to conditions: 30 μM, presence and absence of 10 μM cAMP.
For another data set, the system named is type II PKA holoenzyme. Briefly: type II PKA holoenzyme activation. The class given is biochemical. As to conditions: 30 μM, presence and absence of 10 μM cAMP.
Data set [1] has as its system neonatal rat ventricular myocytes. Put plainly: cytotoxicity in cultured cells. Type of data set: cell-based. Particulars: various types of cultured cells including neonatal rat ventricular myocytes.
Excerpt: Neonatal rat ventricular myocytes (NRVM) isolation: Neonatal rats of 1-2 days old were euthanized by decapitation. The heart was excised and the atria were removed.
Data set [2] relates to isolated adult cardiomyocytes. Put plainly: hypoxia-reoxygenation injury of isolated adult cardiomyocytes (LDH release). Type of data set: cell-based, mouse.
The next data set relates to mice. Particulars: single i.v. bolus 8 mg/kg 5 min before reperfusion; 45 min occlusion, 24 h reperfusion.
Another data set has as its target T1, Epac1 (Homo sapiens, UniProt O95398).
T1 sequence (O95398 1-923): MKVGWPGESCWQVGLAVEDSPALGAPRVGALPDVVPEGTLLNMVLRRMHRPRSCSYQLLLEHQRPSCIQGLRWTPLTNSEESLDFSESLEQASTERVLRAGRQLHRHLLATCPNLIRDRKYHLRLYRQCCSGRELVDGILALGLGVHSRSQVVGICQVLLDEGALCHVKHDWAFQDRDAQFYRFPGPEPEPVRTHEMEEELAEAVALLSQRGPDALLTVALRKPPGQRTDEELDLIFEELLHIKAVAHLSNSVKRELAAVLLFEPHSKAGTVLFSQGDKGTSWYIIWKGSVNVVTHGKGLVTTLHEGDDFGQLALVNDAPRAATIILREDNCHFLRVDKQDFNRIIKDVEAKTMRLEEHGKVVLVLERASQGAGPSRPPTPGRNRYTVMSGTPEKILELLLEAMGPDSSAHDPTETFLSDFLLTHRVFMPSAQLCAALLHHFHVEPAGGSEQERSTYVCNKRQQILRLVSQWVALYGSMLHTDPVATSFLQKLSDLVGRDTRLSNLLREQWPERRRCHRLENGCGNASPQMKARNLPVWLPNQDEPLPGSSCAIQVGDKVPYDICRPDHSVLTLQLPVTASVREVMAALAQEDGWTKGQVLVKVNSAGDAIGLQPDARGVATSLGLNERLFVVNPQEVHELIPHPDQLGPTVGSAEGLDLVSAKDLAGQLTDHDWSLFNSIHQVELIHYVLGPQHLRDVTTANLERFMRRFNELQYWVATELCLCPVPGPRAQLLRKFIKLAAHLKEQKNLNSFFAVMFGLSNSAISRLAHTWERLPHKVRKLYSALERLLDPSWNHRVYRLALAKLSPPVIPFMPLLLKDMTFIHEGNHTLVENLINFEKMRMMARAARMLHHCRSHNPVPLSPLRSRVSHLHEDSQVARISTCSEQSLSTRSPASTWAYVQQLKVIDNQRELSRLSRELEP
Put plainly: Rap1-GTP in HEK293 cells transfected with Epac1. The class given is cell-based. Further details: expressed in transfected cells; host or cells: HEK293. As to conditions: 20 μM, 30 min preincubation; 8-CPT-AM 10 μM, 10 min. As to the method:
FIGS. 9-13. Amounts of Rap1-GTP (n=5 in each group, mean±S.E.M) were determined in HEK293 cells transfected with Epac1 (FIGS. 9-11), Epac2A (FIG. 12) or Epac2B (FIG. 13). Cells were preincubated or not with AM-001 (FIGS. 9, 12, and 13), AM-002 (FIG. 10) or AM-003 (FIG. 11) (20 μM, 30 min) and were then treated or not with 8-CPT-AM (10 μM for Epac1 activation and 20 μM for Epac2A activation) or S-220 (50 μM for Epac2B activation) for 10 min. ESI-05 was used as positive control of Epac2A inhibition. Representative immunoblots are shown. […], *[…], ***p<0.001, ****p<0.0001, versus indicated values, one way ANOVA, Bonferroni comparison test.
Human Embryonic Kidney cells line (HEK293): HEK293 cells were maintained is in minimal essential medium with FBS (10%) and penicillin-streptomycin (1%). All media, sera, and antibiotics used in cell culture were purchased from Invitrogen.
The human Epac1/Epac2 expression vector was a gift from Dr J. L. Bos. Cells were transfected using Lipofectamine 2000 (Invitrogen) according to the manufacturer's instructions. HEK293 cells were maintained in MEM with FBS (Foetal Bovine Serum; 10%) and penicillin-streptomycin (1%). All media, sera and antibiotics used in cell culture were purchased from Invitrogen (Cergy Pontoise, France). Transient transfection experiments were performed with Lipofectamine 2000 (Invitrogen Life Technologies) in the presence of various amounts of plasmid constructs according to the manufacturer's instructions.
This cell line is commonly used for the evaluation of Epac pharmacological modulators on the cellular signaling of ectopically expressed Epac1 and Epac2 isoforms. […] Next, the inventors investigated the effect of 8-CPT-AM on the two Epac2 splice variants, Epac2A and Epac2B (FIGS. 12-13).

SMILES strings stand for the structures.

Description for mice: Statistical significance was determined by two-way ANOVA followed by Bonferroni post-test or t-test. *p<0.01, **p<0.01, ***p<0.001, versus indicated values
Mice were anesthetized with intraperitoneal ketamine (60 mg/kg) and xylazine (6 mg/kg), intubated and ventilated mechanically. Anesthesia was maintained throughout the chirurgical procedure with 1.5% isoflurane. Body temperature was maintained at 37° C. A left thoracotomy was performed in order to enable coronary artery occlusion with a 7-0 Prolene thread placed around the left coronary artery for 45 min, followed by 24 h of reperfusion. […] Myocardial ischemia was confirmed by the presence of regional cyanosis. Reperfusion was confirmed by visualization of a hyperemic response. At this point, the chest was closed in layers. 24 h after reperfusion, mice were anesthetized again, the coronary artery was reoccluded at the previous site, and the heart was excised after Evans blue perfusion. The area at risk and the infarct area were respectively determined by Evans blue and 2,3,5-triphenyltetrazolium chloride (TTC) staining. The area at risk was identified as the non-blue region and expressed as a percentage of the left ventricle weight. The infarcted area was identified as the TTC negative zone and expressed as a percentage of area at risk.

Turning to `Nc1c(C(=O)Nc2ccc(F)cc2)sc2nc(-c3cccs3)cc(-c3ccccc3)c12` [AM-001, 3-amino-N-(4-fluorophenyl)-4-phenyl-6-(thiophen-2-yl)thieno[2,3-b]pyridine-2-carboxamide], the “effect on type I PKA holoenzyme activation” value with type I PKA holoenzyme is given as “did not influence”. The “effect on type II PKA holoenzyme activation” value in the data set on type II PKA holoenzyme is given as “did not influence”. Further, in data set [1], the cytotoxicity result is recorded as “no apparent cytotoxicity”. For the same molecule, the “effect on 8-CPT-AM-induced cardiomyocyte death and hypertrophy” value in data set [2] (AM-001 20 μM, 8-CPT-AM 10 μM) is “inhibited the effect”. Further, in data set [2] (HX+R condition, 20 μM, 30 min pretreatment, vs control cells), the “cardiomyocyte survival by LDH release” value is “significantly increased cardiomyocyte survival”. In the data set with mice, the “ratio of infarct size to area-at-risk” value was found to be 36±3%. Besides, the “inhibition of Epac1-induced Rap1 activation” value at Epac1 was “prevented Epac1-induced Rap1 activation”.
